Data published in paper PMC5890244, “Stimulus dependent diversity and stereotypy in the output of an olfactory functional unit” (Nature Communications, 2018).

Molecular target: T1, M72 odorant receptor (olfr160) (Mus musculus, UniProt A1L3R1)
T1 construct: full-length native receptor in its own olfactory sensory neurons of gene-targeted M72-GFP mice (neonatal epithelium); GFP serves as cell marker
T1 sequence (A1L3R1 1-309): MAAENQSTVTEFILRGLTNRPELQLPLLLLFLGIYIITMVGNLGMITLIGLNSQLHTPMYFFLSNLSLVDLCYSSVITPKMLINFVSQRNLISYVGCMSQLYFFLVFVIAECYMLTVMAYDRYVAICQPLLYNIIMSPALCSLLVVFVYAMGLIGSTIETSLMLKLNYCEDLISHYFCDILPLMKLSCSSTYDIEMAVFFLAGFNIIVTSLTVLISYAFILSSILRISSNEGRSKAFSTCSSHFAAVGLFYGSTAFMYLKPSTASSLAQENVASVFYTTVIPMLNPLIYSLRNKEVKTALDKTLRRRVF
Experiment: perforated patch clamp of dendritic knobs of M72-expressing OSNs, Hill fit
Assay type: cell-based
Settings: 20-23 °C, pH 7.4; native OSNs; odorant from DMSO stock by pressure ejection; lower end of range, strongest ligand
Text: perforated patch clamp of dendritic knobs of M72-expressing OSNs, Hill fit on M72 odorant receptor (olfr160) | 2HA is the strongest ligand yet identified for M72 | Normalized dose–response curves for seven M72 ligands fitted by the Hill equation

For CC(=O)c1ccccc1O [2HA, 2-hydroxyacetophenone], the EC50 was 0.03 µM.
